Experimental data reported in BindingDB's records for doi:10.1021/jm960012o (Allergan, 1996).
pKi: −log10 of the molar value.

Experiment: Displacement of [3H]-clonidine from bovine imidazoline receptor I-1

Row | pKi | Compound
1 | < 4.00 | NC[C@H](O)c1ccc(O)c(O)c1 [4-[(1R)-2-amino-1-hydroxyethyl]benzene-1,2-diol]
2 | 8.05 | Clc1cccc(Cl)c1N=C1NCCN1 [2-(2,6-dichloroanilino)-2-imidazoline]
3 | 7.38 | CC(C)C1C2CCC(C2)C1N (centres undefined) [3-Isopropyl-bicyclo[2.2.1]hept-2-ylamine]
4 | 7.25 | COc1nc(C)nc(Cl)c1N=C1NCCN1 [(4-Chloro-6-methoxy-2-methyl-pyrimidin-5-yl)-imidazolidin-2-ylidene-amine]
